Measurements reported in US6506744B1, “Benzazepinone-derivatives” (Hoffmann-La Roche Inc., priority 1999, dated 2003).

Row | SMILES | melting point
1 | CN1C(=O)CN(CC(=O)NCCC(=O)O)C(=O)c2cc(NC(=N)N)ccc21.Cl | 126 °C
2 | CN1C(=O)CN(CC(=O)NCCC(=O)O)C(=O)c2cc(NC(=O)NCc3ccccc3)ccc21 [Example 3, 3-[2-[7-(3-benzyl-ureido)-1-methyl-2,5-dioxo-1,2,3,5-tetrahydro-benzo[e][1,4]diazepin-4-yl]-acetylamino]-propionic acid] | 116 °C (dec.)
3 | O=C(O)C[C@@H](NC(=O)CN1C[C@H](c2ccccc2)Oc2ccc(NC(=O)NCc3ccccc3)cc2C1=O)c1ccccc1 [Example 21, (R,S)-3-{2-[7-(3-benzyl-ureido)-5-oxo-2-phenyl-2,3-dihydro-5H-benzo[f][1,4]oxazepin-4-yl]-acetylamino}-3-phenyl-propionic acid] | 138 to 140 °C
